These results are taken from patent publication US5824771A, “Cyclic CRF agonists” (The Salk Institute for Biological Studies, priority 1997, dated 1998).

For assay [1], the system named is rat anterior pituitary cells. The assay can be described thus: In vitro stimulation of ACTH and β-endorphin secretion by cultured rat pituitary cells, potency compared with oCRF (Standard) or r/hCRF. The format is cell-based. As to conditions: for stimulation of secretion of ACTH and β-END-LI (testing by the general procedure), in words: general procedure of Example 1. As for the experimental part:
The cyclic CRF agonists are examined for their effects on the secretion of ACTH and β-endorphin in vitro and also in vivo. […] In vivo testing is carried out using the general procedure set forth in C. Rivier et al., Science, 218, 377 (1982).

A short description of assay [2]: Lowering of blood pressure on peripheral or iv administration. The format is in vivo. As to conditions: peripheral administration.

Bridge positions count the residues as written; N and C are the ends. Square brackets hold non-standard residues; d marks the D form. Peptide text beside a SMILES is read from it. Nle = CCCC[C@H](N)C(=O)O

As for `CCCC[C@H](NC(=O)[C@H](CCC(=O)O)NC(=O)[C@H](CC(C)C)NC(=O)[C@H](CCCC)NC(=O)[C@H](CCC(=O)O)NC(=O)[C@H](CCCNC(=N)N)NC(=O)[C@H](CC(C)C)NC(=O)[C@H](CC(C)C)NC(=O)[C@H](Cc1c[nH]cn1)NC(=O)[C@@H](Cc1ccccc1)NC(=O)[C@@H](NC(=O)[C@H](CC(C)C)NC(=O)[C@H](CC(=O)O)NC(=O)[C@H](CC(C)C)NC(=O)[C@H](CO)NC(C)=O)[C@@H](C)O)C(=O)N[C@@H](C)C(=O)N[C@@H](CCCCN)C(=O)N[C@@H](C)C(=O)N[C@@H](CCC(=O)O)C(=O)N[C@@H](CCC(N)=O)C(=O)N[C@@H](CCC(=O)O)C(=O)N[C@@H](C)C(=O)N[C@@H](CCC(=O)O)C(=O)N[C@H]1CCC(=O)NCCCC[C@@H](C(=O)N[C@@H](CC(N)=O)C(=O)N[C@@H](CCCNC(=N)N)C(=O)N[C@@H](CC(C)C)C(=O)N[C@@H](CC(C)C)C(=O)N[C@@H](CC(C)C)C(=O)N[C@@H](CCC(=O)O)C(=O)N[C@@H](CCC(=O)O)C(=O)N[C@@H](C)C(N)=O)NC(=O)[C@@H](C)NC(=O)[C@H](C)NC1=O` [Example 16 A, (cyclo 30-33)[Ac-Ser^7, D-Phe^12, Nle^18,21, Glu^30, D-Ala^32, Lys^33]-AHC(7-41)] (Ac-SLDLT[dF]HLLRE[Nle]LE[Nle]AKAEQEAEEA[dA]KNRLLLEEA-NH2; lactam 24-27), in assay [1], the “stimulation of secretion of ACTH and β-END-LI (testing by the general procedure), in words” value (from here on “stimulation”) is “strongly stimulates the secretion of ACTH and β-END-LI”. Moreover, the “lowering of blood pressure when administered peripherally, in words” value (from here on “lowering of blood pressure”) in assay [2] was “very significant lowering of blood pressure”.
For the molecule `CCCC[C@H](NC(=O)[C@H](CCCCN)NC(=O)[C@H](CCCNC(=N)N)NC(=O)[C@H](CC(C)C)NC(=O)[C@H](CC(C)C)NC(=O)[C@H](CCC(=O)O)NC(=O)[C@@H](CC(C)C)NC(=O)[C@H](CO)NC(=O)[C@H](CC(C)C)NC(=O)[C@H](CC(=O)O)NC(=O)[C@@H](NC(=O)[C@H](CO)NC(C)=O)[C@@H](C)CC)C(=O)N[C@H](C(=O)N[C@@H](CCC(=O)O)C(=O)N[C@H](C(=O)N[C@@H](CCC(=O)O)C(=O)N[C@@H](CCCCN)C(=O)N[C@@H](CCC(N)=O)C(=O)N[C@@H](CCC(=O)O)C(=O)N[C@@H](CCCCN)C(=O)N[C@@H](CCC(=O)O)C(=O)N[C@@H](CCCCN)C(=O)N[C@@H](CCC(N)=O)C(=O)N[C@H]1CCC(=O)NCCCC[C@@H](C(=O)N[C@@H](CC(N)=O)C(=O)N[C@@H](CCCNC(=N)N)C(=O)N[C@@H](CC(C)C)C(=O)N[C@@H](CC(C)C)C(=O)N[C@@H](CC(C)C)C(=O)N[C@@H](CC(=O)O)C(=O)N[C@H](C(=O)N[C@H](C(N)=O)[C@@H](C)CC)[C@@H](C)O)NC(=O)[C@H](C)NC(=O)[C@H](C)NC1=O)[C@@H](C)CC)[C@@H](C)CC` [Example 16 C, (cyclo 29-32)[Ac-Ser^6, D-Leu^11, Nle^17, Glu^29, Lys^32]-sauvagine(6-40)] (Ac-SIDLS[dL]ELLRK[Nle]IEIEKQEKEKQEAAKNRLLLDTI-NH2; lactam 24-27), the “stimulation” value in assay [1] was “stimulates the secretion of ACTH and β-END-LI”. Further, the “lowering of blood pressure” value in assay [2] was “very significant lowering of blood pressure”.
On to `CCCC[C@H](NC(=O)[C@H](CCCCN)NC(=O)[C@H](C)NC(=O)[C@H](CCCNC(=N)N)NC(=O)[C@H](Cc1c[nH]cn1)NC(=O)[C@@H](NC(=O)[C@H](CCCC)NC(=O)[C@H](CC(N)=O)NC(=O)[C@H](CCCNC(=N)N)NC(=O)[C@H](CC(C)C)NC(=O)[C@H](CCCC)NC(=O)[C@H](Cc1c[nH]cn1)NC(=O)[C@@H](Cc1ccccc1)NC(=O)[C@@H](NC(=O)[C@H](CC(C)C)NC(=O)[C@H](CC(=O)O)NC(=O)[C@@H](NC(=O)[C@H](CO)NC(C)=O)[C@@H](C)CC)[C@@H](C)O)[C@@H](C)CC)C(=O)N[C@@H](CCC(=O)O)C(=O)NCC(=O)N[C@@H](CCC(=O)O)C(=O)N[C@@H](CCCNC(=N)N)C(=O)N[C@@H](CCC(=O)O)C(=O)N[C@H]1CCC(=O)NCCCC[C@@H](C(=O)N[C@@H](CC(N)=O)C(=O)N[C@@H](CCCNC(=N)N)C(=O)N[C@@H](CC(N)=O)C(=O)N[C@@H](CC(C)C)C(=O)N[C@@H](CC(C)C)C(=O)N[C@@H](CC(=O)O)C(=O)N[C@@H](CCC(=O)O)C(=O)N[C@H](C(N)=O)C(C)C)NC(=O)[C@@H](Cc2c[nH]cn2)NC(=O)[C@H](C)NC1=O` [Example 16 E D-His^32 analog] (Ac-SIDLT[dF]H[Nle]LRN[Nle]IHRAK[Nle]EGEREEA[dH]KNRNLLDEV-NH2; lactam 24-27), for which the “in vitro biopotency, comparison in words” value in assay [1] (compared with the Standard or with a named analog) is “increases biopotency over that of the D-Leu^32 analog”. For the same molecule, the “stimulation” value in assay [1] was “stimulate the secretion of ACTH and β-END-LI”. For the same molecule, the “lowering of blood pressure” value in assay [2] is “very significant lowering of blood pressure”.
For the molecule `CCCC[C@H](NC(=O)[C@H](CCCCN)NC(=O)[C@H](C)NC(=O)[C@H](CCCNC(=N)N)NC(=O)[C@H](Cc1c[nH]cn1)NC(=O)[C@@H](NC(=O)[C@H](CCCC)NC(=O)[C@H](CC(N)=O)NC(=O)[C@H](CCCNC(=N)N)NC(=O)[C@H](CC(C)C)NC(=O)[C@H](CCCC)NC(=O)[C@H](Cc1c[nH]cn1)NC(=O)[C@@H](Cc1ccccc1)NC(=O)[C@@H](NC(=O)[C@H](CC(C)C)NC(=O)[C@H](CC(=O)O)NC(=O)[C@@H](NC(=O)[C@H](CO)NC(C)=O)[C@@H](C)CC)[C@@H](C)O)[C@@H](C)CC)C(=O)N[C@@H](CCC(=O)O)C(=O)NCC(=O)N[C@@H](CCC(=O)O)C(=O)N[C@@H](CCCNC(=N)N)C(=O)N[C@@H](CCC(=O)O)C(=O)N[C@H]1CCC(=O)NCCCC[C@@H](C(=O)N[C@@H](CC(N)=O)C(=O)N[C@@H](CCCNC(=N)N)C(=O)N[C@@H](CC(N)=O)C(=O)N[C@@H](CC(C)C)C(=O)N[C@@H](CC(C)C)C(=O)N[C@@H](CC(=O)O)C(=O)N[C@@H](CCC(=O)O)C(=O)N[C@H](C(N)=O)C(C)C)NC(=O)[C@@H](CC(C)C)NC(=O)[C@H](C)NC1=O` [Example 16 E, (cyclo 30-33)[Ac-Ser^7, D-Phe^12, Nle^14,18,24, Glu^30, D-Leu^32, Lys^33]-maggy urotensin(7-41)] (Ac-SIDLT[dF]H[Nle]LRN[Nle]IHRAK[Nle]EGEREEA[dL]KNRNLLDEV-NH2; lactam 24-27), the “stimulation” value in assay [1] was “stimulate the secretion of ACTH and β-END-LI”. In addition, the “lowering of blood pressure” value in assay [2] was “very significant lowering of blood pressure”.
